Laboratory results taken from patent US9682995B2, “Amino-substituted isothiazoles” (BAYER PHARMA AKTIENGESELLSCHAFT, priority 2013, dated 2017).

Tests used:
[1] = system: spindle assembly checkpoint; assay: SAC-Formation - Paclitaxel-Induced Assay; type: cell-based; conditions: Homo sapiens; HeLa cells, paclitaxel 0.05 μM, 24 h, phosphorylated histone H3 on serine 10
Method in brief: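 HeLa cells were plated overnight, then given paclitaxel (0.05 μM final) plus compound (0.005-20 μM, 0.5% DMSO) for 24 h at 37° C. Fixed cells were stained for phospho-histone H3 Ser10 and with Hoechst, then imaged to give mitotic index. A fall in mitotic cells marks SAC breakthrough, and values were fit with a four-parameter Hill equation.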

CDK2/CycE = CDK2/CycE (Homo sapiens (Human), UniProt P24941); assay: CDK2/CycE kinase assay (TR-FRET); type: biochemical; conditions: 10 μM ATP; read-out: CDK2 avg (IC50 [mol/l])
Method in brief: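 GST-tagged human CDK2 and GST-CycE from Sf9 cells (~130 ng/ml) were preincubated with compound for 15 min at 22 °C. Reaction with 10 μM ATP and 0.75 μM biotinylated peptide (final) ran 25 min at 22 °C, pH 8.0. Phospho-peptide was read by TR-FRET (665/620 nm ratio, anti-pRB antibody, Eu donor) and normalised to no-enzyme and no-inhibitor controls.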

Compound | IC50 [1] [nM] | IC50 (CDK2/CycE) [nM]
Cc1nsc(Nc2ccn3nccc3n2)c1C(=O)Nc1ccc(F)c(F)c1 [Example 57, N-(3,4-Difluorophenyl)-3-methyl-5-(pyrazolo[1,5-a]pyrimidin-5-ylamino)-1,2-thiazole-4-carboxamide] | 390 | > 20000
CCc1ccccc1NC(=O)c1c(C)nsc1Nc1ccnc(C#N)n1 [Example 6, 5-[(2-Cyanopyrimidin-4-yl)amino]-N-(2-ethylphenyl)-3-methyl-1,2-thiazole-4-carboxamide] | 1200 | > 20000
Cc1nsc(Nc2cnc3ccccc3n2)c1C(=O)Nc1ccc(F)c(F)c1 [Example 50, N-(3,4-Difluorophenyl)-3-methyl-5-(quinoxalin-2-ylamino)-1,2-thiazole-4-carboxamide] | 28 | > 20000
COc1ccc(NC(=O)c2c(C)nsc2Nc2cnc3cc(C(F)(F)F)ccc3n2)cn1 [Example 45, N-(6-Methoxypyridin-3-yl)-3-methyl-5-{[6-(trifluoromethyl)quinoxalin-2-yl]amino}-1,2-thiazole-4-carboxamide] | 140 | > 20000
Cc1nsc(Nc2cncc(C(=O)N(C)C)n2)c1C(=O)Nc1ccc(F)c(F)c1 [Example 104, 6-({4-[(3,4-Difluorophenyl)-carbamoyl]-3-methyl-1,2-thiazol-5-yl}amino)-N,N-dimethyl-pyrazine-2-carboxamide] | 7500 | > 20000
CCOC(=O)c1coc(Nc2snc(C)c2C(=O)Nc2ccc(OC)nc2)n1 [Example 100, Ethyl 2-({4-[(6-methoxypyridin-3-yl)carbamoyl]-3 methyl-1,2-thiazol-5-yl}amino)-1,3-oxazole-4-carboxylate] | 3400 | > 20000
CNC(=O)c1ccnc(Nc2snc(C)c2C(=O)Nc2ccc(F)c(F)c2)c1 [Example 108, 2-({4-[(3,4-Difluorophenyl)-carbamoyl]-3-methyl-1,2-thiazol-5-yl}amino)-N-methyliso-nicotinamide] | 20000 | > 20000
COc1ccc(Oc2ccc(NC(=O)c3c(C)nsc3Nc3cc(C#N)ccn3)cn2)cc1 [Example 117, 5-[(4-Cyanopyridin-2-yl)amino]-N-[6-(4-methoxyphenoxy)pyridin-3-yl]-3-methyl-1,2-thiazole-4-carboxamide] | 2000 | > 20000
Cc1nsc(Nc2cc(C#N)ccn2)c1C(=O)Nc1ccc(OC2CCCCC2)nc1 [Example 118, 5-[(4-Cyanopyridin-2-yl)amino]-N-[6-(cyclohexyloxy)pyridin-3-yl]-3-methyl-1,2-thiazole-4-carboxamide] | 56 | > 20000

Continued by falling IC50 [1], values first:

IC50 [1] [nM] | IC50 (CDK2/CycE) [nM] | Compound
3600 | > 20000 | CCc1ccccc1NC(=O)c1c(C)nsc1Nc1nc2ccccc2nc1C [Example 21, N-(2-Ethylphenyl)-3-methyl-5-[(3-methylquinoxalin-2-yl)amino]-1,2-thiazole-4-carboxamide]
2500 | > 20000 | CCOc1ccc(NC(=O)c2c(C)nsc2Nc2cnc3ccccc3n2)cn1 [Example 119, N-(6-Ethoxypyridin-3-yl)-3-methyl-5-(quinoxalin-2-ylamino)-1,2-thiazole-4-carboxamide]
2000 | > 20000 | CCc1ccccc1NC(=O)c1c(C)nsc1Nc1cc(C(F)(F)F)ccn1 [Example 18, N-(2-Ethylphenyl)-3-methyl-5-{[4-(trifluoromethyl)pyridin-2-yl]amino}-1,2-thiazole-4-carboxamide]
1600 | > 20000 | CCc1ccccc1NC(=O)c1c(C)nsc1Nc1nccnc1C#N [Example 34, 5-[(3-Cyanopyrazin-2-yl)amino]-N-(2-ethylphenyl)-3-methyl-1,2-thiazole-4-carboxamide]
890 | > 20000 | COc1ccc(NC(=O)c2c(C)nsc2Nc2cnc3ccc(Cl)cc3n2)cn1 [Example 42, 5-[(7-Chloroquinoxalin-2-yl)amino]-N-(6-methoxypyridin-3-yl)-3-methyl-1,2-thiazole-4-carboxamide]
880 | > 20000 | Cc1nsc(Nc2cnc3ccccc3n2)c1C(=O)Nc1ccc(OC(C)C)nc1 [Example 122, N-(6-Isopropoxypyridin-3-yl)-3-methyl-5-(quinoxalin-2-ylamino)-1,2-thiazole-4-carboxamide]
820 | > 20000 | Cc1nsc(Nc2nc3c(C(F)(F)F)ccnc3s2)c1C(=O)Nc1ccc(Cl)c(F)c1 [Example 103, N-(4-Chloro-3-fluorophenyl)-3-methyl-5-{[7-(trifluoromethyl)[1,3]thiazolo[5,4-b]pyridin-2-yl]amino}-1,2-thiazole-4-carboxamide]
790 | > 20000 | Cc1nsc(Nc2nc3c(C(F)(F)F)cccc3s2)c1C(=O)Nc1ccc(Cl)c(Cl)c1 [Example 102, N-(3,4-Dichlorophenyl)-3-methyl-5-{[4-(trifluoromethyl)-1,3-benzothiazol-2-yl]amino}-1,2-thiazole-4-carboxamide]
730 | > 20000 | CCc1ccccc1NC(=O)c1c(C)nsc1Nc1cnc2cccc(C)c2n1 [Example 33, N-(2-Ethylphenyl)-3-methyl-5-[(8-methylquinoxalin-2-yl)amino]-1,2-thiazole-4-carboxamide]
590 | > 20000 | Cc1nsc(Nc2nc3c(C(F)(F)F)cccc3s2)c1C(=O)Nc1ccc(Cl)c(F)c1 [Example 53, N-(4-Chloro-3-fluorophenyl)-3-methyl-5-{[4-(trifluoromethyl)-1,3-benzothiazol-2-yl]amino}-1,2-thiazole-4-carboxamide]
580 | > 20000 | CCc1ccccc1NC(=O)c1c(C)nsc1Nc1nc(C)nc2sccc12 [Example 38, N-(2-Ethylphenyl)-3-methyl-5-[(2-methylthieno[2,3-d]pyrimidin-4-yl)amino]-1,2-thiazole-4-carboxamide]
250 | > 20000 | CCOC(=O)c1sc(Nc2snc(C)c2C(=O)Nc2ccccc2CC)nc1C [Example 26, Ethyl 2-({4-[(2-ethylphenyl)carbamoyl]-3-methyl-1,2-thiazol-5-yl}amino)-4-methyl-1,3-thiazole-5-carboxylate]
140 | > 20000 | COc1ccc(NC(=O)c2c(C)nsc2Nc2nc3c(C(F)(F)F)cccc3s2)cn1 [Example 48, N-(6-Methoxypyridin-3-yl)-3-methyl-5-{[4-(trifluoromethyl)-1,3-benzothiazol-2-yl]-amino}-1,2-thiazole-4-carboxamide]
